What all share (assay): inhibition of tumour cell growth, NCI panel, 48 h
Test [1] has as its system SK-MEL-2 melanoma.
For test [2], the system named is SF-295 CNS.
Test [3] relates to SNB-19 CNS.
In test [4] the test system is A549 NSCLC.
In test [5] the test system is OVCAR-8 ovarian.
The subject of test [6] is LXFL 529 NSCLC.
For test [7], the system named is HCT-15 colon.
For test [8], the system named is K-562 leukemia.
Test [9] deals with BT-549 breast.
For test [10], the system named is KM20L2 colon.

Each structure is given as a SMILES string. Where “and” joins values, the source holds several entries; their conditions need not be identical. Identical values can stand only once.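 Grown in 96-well plates, cells were treated for 48 hours with each compound at five concentrations. Insufficient inhibition: endpoint recorded as highest concentration tested. GI50 marks 50% less growth. TGI: total growth inhibition.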

Turning to `c1ccc(N=c2snc3scc(-c4ccccc4)n23)cc1`, the TGI in [1], in test [2], in test [3], in [4], in [5] and in [6] was above 100 µM each time. Further, the TGI in test [7] and in test [8] was above 100 µM each time.

In the case of `Cc1c(-c2ccccc2)c(=O)oc2ccc(Cl)cc12`, the TGI in test [1], in test [2], in test [3], in [4], in test [5] and in test [6] was above 100 µM throughout. Besides, the TGI in test [7] and in test [8] was above 100 µM in each case.

On to `COc1c2ccoc2cc2oc(=O)ccc12`, for which the TGI in test [1], in test [2], in test [3], in [4], in test [5] and in [9] was above 100 µM each time. For the same molecule, the TGI in test [7] and in [8] was above 100 µM in each case.

Turning to `CCN(CC)c1ccc(C2CC(c3cc(OC)c(OC)c(OC)c3)=NN2)cc1` (stereo not given), the GI50 in [1] was 6.6 µM; in [2] it was 0.188 µM; in [3], 0.636 µM; in test [4], 0.591 µM; in test [5] it was 0.43 µM; in test [9], 1.03 µM. For the same molecule, the GI50 in test [7] was 0.597 µM; in test [8] it was 0.336 µM. The TGI in [1] was above 95.5 µM; in test [2] it was 5.19 µM; in test [3], above 100 µM; in test [4] it was above 32.2 µM; in [5] it was above 27.5 µM; in [9], above 22.9 µM. The results for the TGI in test [7] and in test [8] were above 100 µM and above 37.6 µM, respectively.

`O=C1OC(c2ccccc2)=N/C1=C\c1ccc2ccccc2c1`: the TGI in [1], in test [3], in test [4], in [5], in test [7] and in test [10] was above 100 µM throughout. The TGI in test [8] is above 100 µM.

With `CC1=CC(=O)CC(C)(C)C1(O)/C=C/C(C)=C/C(=O)O` (stereo not given), the TGI in test [1], in test [2], in test [3], in [4], in [5] and in test [9] was above 100 µM throughout. Also, the TGI in test [7] and in test [8] was above 100 µM throughout.

In the case of `Sc1ccc2ccccc2c1CNCc1ccccc1`, the TGI in test [1] is 45.5 µM; in [2], 47.3 µM; in test [3], above 100 µM; in test [4], above 100 µM; in test [5], 65.8 µM; in test [9], 48.7 µM. For the same molecule, the TGI in [7] was found to be 88.6 µM; in test [8] it was 39 µM.

Take `C=C(C)[C@@H]1CC[C@]2(C(N)=O)CC[C@]3(C)[C@H](CC[C@@H]4[C@@]5(C)CC[C@H](O)C(C)(C)[C@@H]5CC[C@]43C)[C@@H]12`: the GI50 is 7.63 µM in test [1]; 3.39 µM in [2]; 4.57 µM in test [3]; 2.11 µM in test [4]; 3.12 µM in test [5]; 3.99 µM in test [9]. Further, the GI50 was 3.28 µM in test [7] and 3.04 µM in test [8]. Also, the TGI in test [1] was 36.8 µM; in test [2], 24.8 µM; in [3] it was 34.3 µM; in test [4], 5.39 µM; in test [5], above 100 µM; in test [9], 19.7 µM. Moreover, the results for the TGI in test [7] and in [8] were 12.3 µM and 19.4 µM, respectively.

Take `CC(C)CC1C(=O)N2CCC[C@H]2C2(O)O[C@](NC(=O)C3C=C4c5cccc6[nH]c(Br)c(c56)C[C@H]4N(C)C3)(C(C)C)C(=O)N12` (stereo not given in full): the GI50 in [1] is 22.6 µM; in test [2], 5.3 µM; in test [4], 4.72 µM; in test [9] it was 11.7 µM; in test [7], 7.05 µM; in [8] it was 6.17 µM. Besides, the TGI in [1], in [2], in test [3], in [4], in test [5] and in test [9] was above 100 µM throughout. Further, the TGI in [7] and in [8] was above 100 µM in each case.

Consider `COC(=O)C(Cc1cnc[nH]1)NC(=O)CNC(=O)CCCn1c(=O)c2c3ccccc3n(C)c2n2nnc(-c3ccccc3)c12` (stereo not given), for which the GI50 in [1], in [2], in test [3], in [4], in test [5] and in test [9] was above 100 µM in each case. Also, the GI50 in test [7] and in test [8] was above 100 µM throughout. In addition, the TGI in test [1], in [2], in test [3], in test [4], in [5] and in test [9] was above 100 µM in each case. For the same molecule, the TGI in test [7] and in test [8] was above 100 µM throughout.

As to `O=C(c1ccc(OCCN2CCCCC2)cc1)c1c(-c2ccc(O)cc2)sc2cc(O)ccc12`, the GI50 in test [1] was 15.8 µM and 14.9 µM; in [2], 2.99 µM and 7.88 µM; in [3], 13.7 µM and 15 µM; in test [4] it was 13.2 µM and 14.3 µM; in test [5], 13.4 µM and 18.2 µM; in [9], 7.8 µM and 12 µM. Moreover, the GI50 was 5.51 µM and 2.67 µM in test [7]; 2.5 µM and 7.63 µM in test [8]. Further, the TGI in test [1] was 35.2 µM and 33.8 µM; in test [2] it was 11 µM and 28.5 µM; in [3] it was 30.5 µM and 34.2 µM; in test [4] it was 29.3 µM and 37.9 µM; in [5], 31.5 µM and 51.3 µM; in [9], 21.5 µM and 27.9 µM. In addition, the TGI in test [7] is 20.8 µM and 13.2 µM.

For `Cc1cc(C(=O)Nc2nc3cccc(Cl)c3n2[C@@H]2CCCCN(C(=O)/C=C/CN(C)C)C2)ccn1`, the GI50 in [1] was 17.5 µM; in test [2] it was 13.9 µM; in test [3], 12.9 µM; in [4], 6.37 µM; in test [5], 11.4 µM; in test [9], 7.26 µM. Further, the GI50 is 4.42 µM in test [7] and 9.58 µM in test [8]. For the same molecule, the TGI in test [1] was determined as 34.2 µM; in test [2], 28.6 µM; in [3] it was 31.2 µM; in test [4] it was 31.8 µM; in [5] it was 40.3 µM; in test [9] it was 20.9 µM. Besides, the TGI in test [7] was determined as 19.7 µM; in test [8] it was 61.5 µM.

For the molecule `CCNCCC1(CC)C(=O)NC(=O)NC1=O`, the TGI in test [1], in [2], in [3], in [4], in test [5] and in [9] was above 100 µM in each case. Moreover, the TGI in test [7] and in [8] was above 100 µM each time.

For `CN(C)CCCNC(=O)c1ccc2oc3cc4ccccc4c(=O)n3c2c1`, the GI50 in [1] was above 50 µM; in [2] it was 33.7 µM; in test [3], above 50 µM; in test [4], 27.6 µM; in [5], 40.5 µM; in [9], 24.2 µM. The GI50 was 23.8 µM in test [7] and 33.8 µM in test [8]. In addition, the TGI in [1], in test [2], in test [3], in test [4], in test [5] and in test [9] was above 50 µM throughout. Besides, the TGI in [7] and in test [8] was above 50 µM each time.

As for `Cc1nc2ccccn2c1NC(=O)NNC(=S)Nc1ccc(Br)cc1`, the GI50 was 77.8 µM in [1]; 57.5 µM in test [2]; 39.1 µM in [3]; 71.6 µM in [4]; 63.8 µM in [5]; 42.8 µM in [9]. Further, the GI50 in test [7] was 28.8 µM; in [8] it was 21.8 µM. Besides, the TGI in [1], in test [2], in test [3], in test [4], in test [5] and in test [9] was above 100 µM in each case. The TGI is above 100 µM in [7] and 54.6 µM in test [8].

For `CC(C)CCSC1=CC(=O)c2ccccc2C1=O`, the GI50 was 6.73 µM in test [1]; 14.7 µM in test [2]; 30 µM in [3]; 32.6 µM in [4]; 4.56 µM in test [5]; 1.33 µM in [9]. Moreover, the GI50 in test [7] was 6.61 µM; in test [8], 0.313 µM. Besides, the TGI in [1] was 17.3 µM; in test [2] it was 42.2 µM; in [3], above 100 µM; in [4], above 82.8 µM; in test [5] it was 17.3 µM; in test [9] it was 21.3 µM. For the same molecule, the TGI in test [7] came out at 19.1 µM; in test [8] it was 1.2 µM.

Turning to `O=C1/C=C/[C@@H](O)[C@@H]2C[C@@H](O)C[C@H]2/C=C/CCC[C@H](CCc2ccc(C(F)(F)F)cc2)O1`, the GI50 was 0.349 µM in test [1]; 0.188 µM in test [2]; 0.383 µM in test [3]; 0.305 µM in [4]; 0.219 µM in [5]; 0.355 µM in test [9]. Further, the values for the GI50 in test [7] and in test [8] were 0.34 µM and 0.444 µM, respectively. Further, the TGI in test [1] was 1.41 µM; in [2] it was 47.8 µM; in test [3] it was above 100 µM; in [4], above 100 µM; in test [5] it was above 100 µM; in test [9] it was 10.7 µM. In addition, the TGI in [7] is 2.36 µM; in test [8], above 100 µM.

As to `NC(=O)C1c2ccccc2C=Cc2ccccc21`, the GI50 in test [1], in [2], in test [3], in [4], in test [5] and in test [9] was above 100 µM each time. Further, the GI50 in test [7] and in [8] was above 100 µM each time. Moreover, the TGI in test [1], in test [2], in [3], in [4], in [5] and in test [9] was above 100 µM throughout. Further, the TGI in test [7] and in [8] was above 100 µM throughout.

In the case of `O=C1/C(=C\c2ccc(F)cc2)CN(C(=O)c2ccc([N+](=O)[O-])cc2)C/C1=C\c1ccc(F)cc1`, the GI50 is 20.4 µM in test [1]; 2.99 µM in [2]; 3.58 µM in test [3]; 3.63 µM in test [4]; 2.97 µM in test [5]; 2 µM in test [9]. The figures for the GI50 in test [7] and in [8] were 1.31 µM and 0.915 µM, respectively. Also, the TGI was above 100 µM in test [1]; 16.4 µM in [2]; 49.1 µM in test [3]; above 77.3 µM in [4]; above 100 µM in test [5]; 4.41 µM in test [9]. Further, the results for the TGI in test [7] and in test [8] were 4.31 µM and above 43.2 µM, respectively.

`NCCCCCCCCn1c2c(c3ccccc3c1=O)C(=O)c1ccccc1-2`: the GI50 in test [1] was 2.83 µM; in test [2], 2.57 µM; in test [3] it was 5.9 µM; in test [4] it was 8.93 µM; in test [5] it was 3.98 µM; in test [9], 5.18 µM. For the same molecule, the GI50 in [7] is 3.26 µM; in test [8], 1.87 µM. For the same molecule, the TGI in [1] is 6.98 µM; in test [2], 7.18 µM; in test [3], 80.8 µM; in test [4], 50.8 µM; in test [5] it was above 100 µM; in test [9], 23.3 µM. Further, the TGI is 10.2 µM in test [7] and 3.67 µM in [8].

On to `Cc1ncc(C(=O)Nc2ccc(CN3CCN(C)CC3)c(C(F)(F)F)c2)cc1C#Cc1cnc(N)c2cnccc12`, for which the GI50 is 0.0243 µM in test [1]; 0.309 µM in test [2]; 0.684 µM in test [3]; 0.202 µM in [4]; 0.112 µM in test [5]; 0.841 µM in test [9]. In addition, the GI50 in [7] is 0.389 µM. Moreover, the TGI came out at 0.0941 µM in test [1]; 14.8 µM in test [2]; 17.6 µM in test [3]; 4.87 µM in test [4]; 16.3 µM in test [5]; 10.7 µM in test [9]. In addition, the TGI in [7] was 4.41 µM; in [8], 1.29 µM.

The record behind these values is PubChem BioAssay (NCI).
